This note sets out measurements from paper PMC8620908, “Design, Synthesis, In Vitro Anticancer Evaluation and Molecular Modelling Studies of 3,4,5-Trimethoxyphenyl-Based Derivatives as Dual EGFR/HDAC Hybrid Inhibitors” (Pharmaceuticals, 2021).

Series [1] concerns HepG2. In words: Antiproliferative MTT assay, HepG2. The conditions noted are these: Homo sapiens, HepG2, read-out: Antiproliferative Activity IC50 ± SEM, HepG2. For orientation: Tetrazolium dyes change colour on reduction, which living cells bring about.
Series [2] has as its system HCT116. In words: Antiproliferative MTT assay, HCT116. The conditions noted are these: Homo sapiens, HCT-116, read-out: Antiproliferative Activity IC50 ± SEM, HCT116.
The test system of series [3] is MCF-7. In words: Antiproliferative MTT assay, MCF-7. The conditions noted are these: Homo sapiens, MCF7, read-out: Antiproliferative Activity IC50 ± SEM, MCF-7.
Series [4] deals with A549. In words: Antiproliferative MTT assay, A549. The conditions noted are these: Homo sapiens, A549, read-out: Antiproliferative Activity IC50 ± SEM, A549.
The target in series [5] is HDAC1 (Homo sapiens, UniProt Q13547). Description: In vitro HDAC inhibition assay, HDAC1.
Series [6] addresses T1, HDAC6 (Homo sapiens, UniProt Q9UBN7).
T1 sequence (Q9UBN7 1-1215): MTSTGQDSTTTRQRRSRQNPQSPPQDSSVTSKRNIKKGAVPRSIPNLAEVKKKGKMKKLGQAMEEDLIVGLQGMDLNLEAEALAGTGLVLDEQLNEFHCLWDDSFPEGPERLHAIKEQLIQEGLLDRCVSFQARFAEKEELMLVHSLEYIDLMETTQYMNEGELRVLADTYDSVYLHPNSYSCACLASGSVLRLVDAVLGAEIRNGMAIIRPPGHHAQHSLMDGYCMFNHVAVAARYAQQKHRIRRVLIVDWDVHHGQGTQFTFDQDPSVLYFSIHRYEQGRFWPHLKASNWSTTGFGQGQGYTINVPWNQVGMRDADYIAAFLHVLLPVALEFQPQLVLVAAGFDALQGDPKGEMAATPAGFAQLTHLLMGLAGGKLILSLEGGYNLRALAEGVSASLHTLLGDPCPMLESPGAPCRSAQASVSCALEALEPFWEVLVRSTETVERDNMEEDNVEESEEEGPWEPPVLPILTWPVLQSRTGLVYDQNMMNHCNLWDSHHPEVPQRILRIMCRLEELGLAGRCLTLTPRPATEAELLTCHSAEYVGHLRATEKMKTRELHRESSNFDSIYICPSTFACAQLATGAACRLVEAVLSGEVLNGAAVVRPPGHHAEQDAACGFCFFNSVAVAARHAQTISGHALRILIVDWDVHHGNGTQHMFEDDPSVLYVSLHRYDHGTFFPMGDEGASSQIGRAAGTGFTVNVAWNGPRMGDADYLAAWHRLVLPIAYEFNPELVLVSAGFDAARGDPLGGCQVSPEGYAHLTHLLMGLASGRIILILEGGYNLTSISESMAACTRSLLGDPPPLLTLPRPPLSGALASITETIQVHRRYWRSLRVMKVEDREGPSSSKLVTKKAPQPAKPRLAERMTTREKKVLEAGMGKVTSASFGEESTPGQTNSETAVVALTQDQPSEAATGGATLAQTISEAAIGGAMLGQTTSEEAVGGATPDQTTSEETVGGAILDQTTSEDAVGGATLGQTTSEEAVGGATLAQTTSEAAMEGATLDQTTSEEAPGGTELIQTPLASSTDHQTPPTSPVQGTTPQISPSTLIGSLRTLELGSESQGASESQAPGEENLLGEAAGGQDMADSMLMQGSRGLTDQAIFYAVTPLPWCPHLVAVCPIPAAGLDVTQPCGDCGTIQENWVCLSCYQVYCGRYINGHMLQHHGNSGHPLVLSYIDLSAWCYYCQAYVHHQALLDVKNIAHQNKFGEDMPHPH
In words: In vitro HDAC inhibition assay, HDAC6.

Series [7] addresses HDAC2 (Homo sapiens, UniProt Q92769). In words: In vitro HDAC inhibition assay, HDAC2.
Series [8] addresses EGFR (Homo sapiens, UniProt P00533). Description: EGFR-TK inhibition, cell-free assay. The class given is biochemical.
Series [9] has as its target T2, HDAC8 (Homo sapiens, UniProt Q9BY41).
T2 sequence (Q9BY41 1-377): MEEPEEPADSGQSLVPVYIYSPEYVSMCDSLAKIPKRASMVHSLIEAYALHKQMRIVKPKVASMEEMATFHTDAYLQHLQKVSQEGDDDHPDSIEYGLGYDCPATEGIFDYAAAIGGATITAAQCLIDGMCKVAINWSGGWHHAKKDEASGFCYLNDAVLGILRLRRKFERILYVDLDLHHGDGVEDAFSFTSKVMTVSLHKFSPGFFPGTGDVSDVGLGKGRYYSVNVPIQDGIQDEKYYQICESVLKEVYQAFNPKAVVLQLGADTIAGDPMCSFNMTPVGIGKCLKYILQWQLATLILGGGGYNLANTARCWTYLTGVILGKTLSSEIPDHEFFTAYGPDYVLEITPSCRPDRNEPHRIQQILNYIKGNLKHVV
Description: In vitro HDAC inhibition assay, HDAC8.

The target in series [10] is HDAC4 (Homo sapiens, UniProt P56524). In words: In vitro HDAC inhibition assay, HDAC4.
The subject of series [11] is Caspase-3. In words: Caspase-3 level assay in HepG2 cancer cell line. The class given is cell-based, human.
The subject of series [12] is Caspase-8. Description: Caspase-8 level assay in HepG2 cancer cell line. Format: cell-based, human. The conditions noted are these: HepG2 cancer cell line.
The test system of series [13] is Bax. In words: Bax level assay in HepG2 cancer cell line. The class given is cell-based. The conditions noted are these: HepG2 cancer cell line.

Like-named read-outs stand apart in the source and are kept apart here.

Sequence of HDAC4 (P56524 whole entry): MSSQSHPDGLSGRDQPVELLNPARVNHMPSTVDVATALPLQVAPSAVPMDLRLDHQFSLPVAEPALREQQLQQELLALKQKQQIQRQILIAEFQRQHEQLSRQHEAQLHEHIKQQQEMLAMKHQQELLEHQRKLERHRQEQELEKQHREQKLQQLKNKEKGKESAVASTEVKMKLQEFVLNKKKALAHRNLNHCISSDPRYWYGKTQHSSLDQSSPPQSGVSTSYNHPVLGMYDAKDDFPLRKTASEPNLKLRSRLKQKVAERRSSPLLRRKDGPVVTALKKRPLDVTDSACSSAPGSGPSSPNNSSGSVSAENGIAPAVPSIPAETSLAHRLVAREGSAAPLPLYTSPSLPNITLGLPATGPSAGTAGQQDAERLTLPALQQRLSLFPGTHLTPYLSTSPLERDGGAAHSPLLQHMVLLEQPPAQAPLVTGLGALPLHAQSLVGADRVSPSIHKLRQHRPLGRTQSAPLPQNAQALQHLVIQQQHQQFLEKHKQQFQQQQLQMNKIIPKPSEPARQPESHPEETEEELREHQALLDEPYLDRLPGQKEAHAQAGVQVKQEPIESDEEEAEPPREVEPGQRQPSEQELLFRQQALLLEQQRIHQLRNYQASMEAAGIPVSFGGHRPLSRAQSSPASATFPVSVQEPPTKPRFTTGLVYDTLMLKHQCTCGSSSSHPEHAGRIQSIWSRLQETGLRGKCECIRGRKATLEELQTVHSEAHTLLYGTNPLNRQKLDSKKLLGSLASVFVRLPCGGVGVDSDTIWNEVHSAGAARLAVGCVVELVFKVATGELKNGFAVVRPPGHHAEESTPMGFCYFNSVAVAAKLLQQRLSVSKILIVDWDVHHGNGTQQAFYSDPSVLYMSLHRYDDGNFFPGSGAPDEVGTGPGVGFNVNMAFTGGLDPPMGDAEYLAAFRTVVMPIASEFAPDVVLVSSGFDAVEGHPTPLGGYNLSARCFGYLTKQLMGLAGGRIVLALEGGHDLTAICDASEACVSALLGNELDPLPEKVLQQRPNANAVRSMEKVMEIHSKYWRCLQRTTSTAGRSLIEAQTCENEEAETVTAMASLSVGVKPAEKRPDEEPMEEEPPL
Sequence of EGFR (P00533 25-1210): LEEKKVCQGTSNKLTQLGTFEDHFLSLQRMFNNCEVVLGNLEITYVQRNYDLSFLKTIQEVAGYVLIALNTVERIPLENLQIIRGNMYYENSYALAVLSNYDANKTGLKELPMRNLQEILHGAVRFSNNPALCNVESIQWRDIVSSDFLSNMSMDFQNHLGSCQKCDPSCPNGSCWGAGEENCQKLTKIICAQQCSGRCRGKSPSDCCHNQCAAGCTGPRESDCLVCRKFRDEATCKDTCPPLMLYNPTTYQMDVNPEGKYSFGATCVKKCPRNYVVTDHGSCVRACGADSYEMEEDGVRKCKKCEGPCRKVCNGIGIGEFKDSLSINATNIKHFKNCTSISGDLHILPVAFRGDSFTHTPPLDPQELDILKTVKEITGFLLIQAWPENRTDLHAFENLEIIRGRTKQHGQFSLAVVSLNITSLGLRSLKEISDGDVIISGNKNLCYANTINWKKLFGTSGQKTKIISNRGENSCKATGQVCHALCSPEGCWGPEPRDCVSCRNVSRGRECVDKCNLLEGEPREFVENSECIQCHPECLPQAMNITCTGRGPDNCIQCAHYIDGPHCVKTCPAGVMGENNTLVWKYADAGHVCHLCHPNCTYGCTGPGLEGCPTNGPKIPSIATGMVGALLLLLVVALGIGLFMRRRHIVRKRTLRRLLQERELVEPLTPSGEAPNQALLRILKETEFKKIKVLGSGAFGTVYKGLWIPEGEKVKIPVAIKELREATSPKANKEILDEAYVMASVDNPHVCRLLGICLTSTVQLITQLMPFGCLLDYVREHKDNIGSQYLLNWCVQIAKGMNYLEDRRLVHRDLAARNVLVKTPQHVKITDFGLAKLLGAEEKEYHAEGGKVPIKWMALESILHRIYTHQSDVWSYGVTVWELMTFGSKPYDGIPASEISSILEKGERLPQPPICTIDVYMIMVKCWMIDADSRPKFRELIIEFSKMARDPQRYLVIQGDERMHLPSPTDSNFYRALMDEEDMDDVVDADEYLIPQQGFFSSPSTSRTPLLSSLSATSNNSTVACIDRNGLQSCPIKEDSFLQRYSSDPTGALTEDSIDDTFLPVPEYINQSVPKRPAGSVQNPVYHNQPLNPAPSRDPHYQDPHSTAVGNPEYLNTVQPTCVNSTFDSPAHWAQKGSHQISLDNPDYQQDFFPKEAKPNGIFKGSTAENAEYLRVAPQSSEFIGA
Sequence of HDAC1 (Q13547 whole entry): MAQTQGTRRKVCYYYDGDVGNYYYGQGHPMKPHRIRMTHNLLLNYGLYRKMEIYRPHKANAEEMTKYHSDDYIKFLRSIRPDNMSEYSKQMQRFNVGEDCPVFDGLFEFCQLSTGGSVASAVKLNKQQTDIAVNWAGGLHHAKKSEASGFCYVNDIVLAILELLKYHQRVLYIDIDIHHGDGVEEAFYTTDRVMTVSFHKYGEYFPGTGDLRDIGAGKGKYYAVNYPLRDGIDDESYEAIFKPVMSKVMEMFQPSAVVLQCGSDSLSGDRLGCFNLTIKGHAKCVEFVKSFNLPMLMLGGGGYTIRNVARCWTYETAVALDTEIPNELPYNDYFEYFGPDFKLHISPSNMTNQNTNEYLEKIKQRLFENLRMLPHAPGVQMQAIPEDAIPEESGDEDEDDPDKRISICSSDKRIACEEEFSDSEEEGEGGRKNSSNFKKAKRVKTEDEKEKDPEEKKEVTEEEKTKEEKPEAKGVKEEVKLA
Sequence of HDAC2 (Q92769 whole entry): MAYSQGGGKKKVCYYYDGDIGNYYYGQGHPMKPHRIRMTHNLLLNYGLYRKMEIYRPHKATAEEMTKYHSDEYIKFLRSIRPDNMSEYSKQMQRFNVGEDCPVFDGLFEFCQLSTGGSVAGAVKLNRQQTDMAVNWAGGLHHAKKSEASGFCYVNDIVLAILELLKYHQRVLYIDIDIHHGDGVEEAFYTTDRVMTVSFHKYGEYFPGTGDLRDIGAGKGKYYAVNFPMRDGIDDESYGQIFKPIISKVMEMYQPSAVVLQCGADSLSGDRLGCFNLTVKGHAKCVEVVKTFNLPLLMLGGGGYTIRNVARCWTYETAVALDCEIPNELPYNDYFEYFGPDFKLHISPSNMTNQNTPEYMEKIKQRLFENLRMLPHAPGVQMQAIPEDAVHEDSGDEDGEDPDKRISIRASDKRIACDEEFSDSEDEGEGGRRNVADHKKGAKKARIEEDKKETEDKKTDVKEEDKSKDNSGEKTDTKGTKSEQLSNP

What is called IC50 is the concentration that inhibits the measured activity by half. As usually defined, the melting point is the temperature, or range, at which the solid turns liquid. `COc1cc(/C=C/C(=O)c2ccc(OCCCCC(=O)O)cc2)cc(OC)c1OC` [2a, (E)-5-(4-(3-(3,4,5-Trimethoxyphenyl)Acryloyl)Phenoxy)Pentanoic Acid] came in with a melting point of 102 to 105 °C. Moreover, the IC50 in series [1] was 88.4 ± 4.76 µM. Moreover, the IC50 in [2] stood at 40.1 ± 2.16 µM. Further, in [3], the IC50 stood at 59.9 ± 3.23 µM. Also, in [4], the IC50 amounted to 44.4 ± 2.39 µM.

`COc1cc(/C=C/C(=O)c2ccc(OCCCCCC(=O)O)cc2)cc(OC)c1OC` [2b, (E)-6-(4-(3-(3,4,5-Trimethoxyphenyl)Acryloyl)Phenoxy)Hexanoic Acid]: the melting point is 138 to 140 °C. The IC50 in series [1] is 30.4 ± 1.64 µM. Moreover, the IC50 in [2] was found to be 23.7 ± 1.28 µM. In series [3], the half-maximal inhibitory concentration (IC50) worked out at 39.4 ± 2.12 µM. In addition, in [4], the concentration for half-maximal inhibition (IC50) worked out at 33.7 ± 1.82 µM.

In the case of `COc1cc(/C=C/C(=O)c2ccc(OCCCCCCC(=O)O)cc2)cc(OC)c1OC` [2c, (E)-7-(4-(3-(3,4,5-Trimethoxyphenyl)Acryloyl)Phenoxy)Heptanoic Acid], the melting point fell in the range of 112 to 115 °C. The IC50 in series [1] came out at 17.1 ± 0.92 µM. In addition, in series [2], the IC50 was determined as 16.5 ± 0.89 µM. In addition, the IC50 in series [3] came out at 14.8 ± 0.8 µM. Also, in [4], the IC50 was 22.7 ± 1.22 µM.

In the case of `COc1cc(-c2cc(-c3ccc(OCCCCC(=O)O)cc3)[nH]c(=O)c2C#N)cc(OC)c1OC` [3a, 5-(4-(5-Cyano-6-Oxo-4-(3,4,5-Trimethoxyphenyl)-1,6-Dihydropyridin-2-yl)Phenoxy)Pentanoic Acid], the melting point lay in the range of 224 to 228 °C. In addition, the IC50 in series [1] was determined as 65.8 ± 3.55 µM. For the same molecule, in series [2], the concentration for half-maximal inhibition (IC50) is 23.5 ± 1.27 µM. The IC50 in series [3] was found to be 46.4 ± 2.54 µM. The IC50 in series [4] came to 31 ± 1.67 µM.

As to `COc1cc(-c2cc(-c3ccc(OCCCCCC(=O)O)cc3)[nH]c(=O)c2C#N)cc(OC)c1OC` [3b, 6-(4-(5-Cyano-6-Oxo-4-(3,4,5-Trimethoxyphenyl)-1,6-Dihydropyridin-2-yl)Phenoxy) Hexanoic Acid], the IC50 in series [1] is 16.2 ± 0.87 µM; in series [2], 15.7 ± 0.85 µM; in [3], 12.2 ± 0.65 µM; in [4], 15.3 ± 0.82 µM.

The molecule `COc1cc(-c2cc(-c3ccc(OCCCCCCC(=O)O)cc3)[nH]c(=O)c2C#N)cc(OC)c1OC` [3c, 7-(4-(5-Cyano-6-Oxo-4-(3,4,5-Trimethoxyphenyl)-1,6-Dihydropyridin-2-yl)Phenoxy) Heptanoic Acid] registered a melting point of 168 to 170 °C. The IC50 in series [1] turned out to be 21.1 ± 1.14 µM. Further, in series [2], the IC50 came to 13.9 ± 0.75 µM. Further, the IC50 in [3] was 23.7 ± 1.28 µM. The IC50 in series [4] came to 21.3 ± 1.15 µM.

The molecule `COc1cc(/C=C/C(=O)c2ccc(OCCCCC(=O)NO)cc2)cc(OC)c1OC` [4a, (E)-N-Hydroxy-5-(4-(3-(3,4,5-Trimethoxyphenyl)Acryloyl)Phenoxy) Pentanamide] returned a melting point of 220 to 224 °C. The same molecule yielded an IC50 in [5] of 0.121 µM. Moreover, in series [1], the IC50 came to 3.62 ± 0.2 µM. Moreover, the IC50 in series [2] is 3.21 ± 0.17 µM. Besides, in series [3], the IC50 worked out at 1.97 ± 0.11 µM. The same molecule returned an IC50 in series [6] of 0.086 µM. The same molecule yielded an IC50 in series [7] of 0.119 µM. The molecule further returned an IC50 in series [8] of 0.111 ± 0.002 µM. The molecule further registered an IC50 in series [9] of 6.35 µM. The IC50 in [4] came to 2.07 ± 0.11 µM. Further, the IC50 in [10] came to 6.69 µM.

With `COc1cc(/C=C/C(=O)c2ccc(OCCCCCCC(=O)NO)cc2)cc(OC)c1OC` [4c, (E)-N-Hydroxy-7-(4-(3-(3,4,5-Trimethoxyphenyl)Acryloyl)Phenoxy)Heptanamide], the melting point was 122 to 128 °C. The molecule further displayed an IC50 in [5] of 0.07 µM. The IC50 in series [1] is 2.54 ± 0.14 µM. In addition, the IC50 in series [2] was determined as 1.59 ± 0.09 µM. In [3], the IC50 was found to be 1.18 ± 0.06 µM. In series [6], the half-inhibitory concentration (IC50) was 0.113 µM. In addition, the IC50 in series [7] amounted to 0.277 µM. Besides, half-maximal inhibition in [8] (IC50) was put at 0.091 ± 0.001 µM. This molecule returned an IC50 in [9] of 5.02 µM. Moreover, the IC50 in series [4] is 1.93 ± 0.14 µM. This molecule also came in with an IC50 in [10] of 8.72 µM.

As for `COc1cc(-c2cc(-c3ccc(OCCCCC(=O)NO)cc3)[nH]c(=O)c2C#N)cc(OC)c1OC` [5a, 5-(4-(5-Cyano-6-Oxo-4-(3,4,5-Trimethoxyphenyl)-1,6-Dihydropyridin-2-yl)Phenoxy)-N-Hydroxypentanamide], the melting point fell in the range of 232 to 238 °C. Also, in series [5], inhibition was half-maximal at 0.051 µM (IC50). Besides, the IC50 in [1] came to 3.46 ± 0.19 µM. Further, the IC50 in [2] came out at 4.67 ± 0.25 µM. Also, the half-inhibitory concentration (IC50) in [3] was determined as 4.89 ± 0.26 µM. In addition, the IC50 in series [6] came out at 0.222 µM. The midpoint of inhibition in series [7], the IC50, lay at 0.256 µM. The IC50 in series [8] is 0.214 ± 0.004 µM. Moreover, the IC50 in [9] turned out to be 19.6 µM. Further, the IC50 in [4] was 2.3 ± 0.12 µM. This molecule also gave an IC50 in series [10] of 17.5 µM.

For the molecule `COc1cc(-c2cc(-c3ccc(OCCCCCC(=O)NO)cc3)[nH]c(=O)c2C#N)cc(OC)c1OC` [5b, 6-(4-(5-Cyano-6-Oxo-4-(3,4,5-Trimethoxyphenyl)-1,6-Dihydropyridin-2-yl)Phenoxy)-N-Hydroxyhexanamide], the melting point was in the range of 198 to 204 °C. Moreover, in [1], the IC50 was 28.3 ± 0.99 µM. Moreover, in [2], the IC50 amounted to 16.9 ± 3.71 µM. For the same molecule, in series [3], the IC50 was determined as 19.6 ± 1.05 µM. Besides, the IC50 in [4] is 18.8 ± 1.01 µM.

As to `COc1cc(-c2cc(-c3ccc(OCCCCCCC(=O)NO)cc3)[nH]c(=O)c2C#N)cc(OC)c1OC` [5c, 7-(4-(5-Cyano-6-Oxo-4-(3,4,5-Trimethoxyphenyl)-1,6-dihydropyridin-2-yl)phenoxy)-N-Hydroxyheptanamide], the melting point was 170 to 176 °C. In addition, the IC50 in series [1] is 27.6 ± 1.49 µM. Further, the IC50 in [2] worked out at 9.47 ± 0.51 µM. In addition, in series [3], the IC50 came to 12.1 ± 0.65 µM. Also, the IC50 in series [4] stood at 8.58 ± 0.46 µM.

As to `CN[C@@H]1C[C@H]2O[C@@](C)([C@@H]1OC)n1c3ccccc3c3c4c(c5c6ccccc6n2c5c31)C(=O)NC4` [Staurosporine, reference compound], the entries for the “Caspase-3 Conc” value in [11] and in series [11] (listed as staurosporine) were 445.9 ± 15.39 pg/mL and 445.9 pg/mL, respectively. Further, the “Caspase-8 Conc” value in [12] stood at 1.343 ± 0.026 ng/mL; in [12] (listed as staurosporine), 1.343 ng/mL. Moreover, the “Bax Conc” value in [13] came to 362.2 ± 9.61 pg/mL; in [13] (listed as staurosporine), 362.2 pg/mL.
